Data on 5 compounds can be found in article PMC9284121, “Florfenicol-Polyarginine Conjugates Exhibit Promising Antibacterial Activity Against Resistant Strains” (Frontiers in Chemistry, 2022).

Assay [1] concerns E. coli clinical strain 2018XJ30. Kind of assay: microbe, parasite or virus in culture. Format: cell-based, Escherichia coli. The method, then:
(§1) All the florfenicol-polyarginine conjugates were tested against Gram-positive and Gram-negative bacteria, including MRSA (ATCC 43300), S. aureus (ATCC 25923), E. coli (ATCC 25922), clinical strains of E. coli (2019XJ06, 2019XJ25, 2018XJ108, 2018XJ105, 2018XJ30) and clinical strains of florfenicol resistant E. coli (2017XJ30, 2019XJ20).
(§2) Gram-negative E. coli (ATCC 25922), clinical strains of E. coli (2019XJ06, 2019XJ25, 2018XJ108, 2018XJ105, 2018XJ30) and clinical strains of florfenicol resistant E. coli (2017XJ30, 2019XJ20) and Gram-positive MRSA (ATCC 43300) and S. aureus (ATCC 25923) were maintained in 50% glycerol at −80°C up to the time of use. The bacterial strains were cultured in Muller-Hinton broth (Guangdong Huan Kai Microbial Sci. &Tech. Co., Ltd. in China) media. Mueller-Hinton agar (Guangdong Huan Kai Microbial Sci. & Tech. Co., Ltd. in China) was used as growth medium in solid media.
(§3) CLSI guidelines were followed for determining MICs of all florfenicol-polyarginine conjugates by the broth microdilution method. The required bacterial (E. coli, S. aureus and MRSA) single colony was inoculated into Muller-Hinton broth (MHB) and cultured for 4–6 h. And then, the bacteria were adjusted to 10^6 CFU/ml in cultures. All compounds were prepared into a stock solution at a concentration of 0.1 mol/L with DMSO. The stock solutions were then diluted to required concentration (100, 50, 25, 12.5, 6.25, 3.125, 1.56, 0.78, 0.39 μmol/L) with MHB media. Subsequently, a 96 well plate was filled with these dilutions and 10^6 CFU/ml bacterial suspension. The diluted compounds of different concentrations (100 µl) were first added to 96 well plate, and then 100 µl bacterial dilutions (10^6 CFU/ml) was added. The negative and positive controls were 200 µl of MHB media and 100 µl of bacterial suspension combined with 100 µl of MHB media, respectively. The experiment of each compound was repeated three times, and each experiment was at least twice repeated. The 96 well plates were incubated at 37°C for 16–24 h. MIC indicated antibacterial activity. Florfenicol was used as a control drug.

For assay [2], the system named is florfenicol resistant E. coli clinical strain 2017XJ30. Kind of assay: microbe, parasite or virus in culture. The assay is classed as cell-based, Escherichia coli. As to the method: as §1, §2, §3
Assay [3] deals with E. coli clinical strain 2018XJ105. Kind of assay: microbe, parasite or virus in culture. Format: cell-based, Escherichia coli. As to the method: as §1, §2, §3
The test system of assay [4] is E. coli clinical strain 2019XJ06. Kind of assay: microbe, parasite or virus in culture. Format: cell-based, Escherichia coli. The method, then: as §1, §2, §3
In assay [5] the test system is E. coli clinical strain 2019XJ25. Kind of assay: microbe, parasite or virus in culture. Format: cell-based, Escherichia coli. As to the method:
as §1, §2, §3

Assay [6] concerns florfenicol resistant E. coli clinical strain 2019XJ20. Kind of assay: microbe, parasite or virus in culture. The assay is classed as cell-based, Escherichia coli. The method, then:
as §1, §2, §3

The next assay deals with E.coli (ATCC 25922). Kind of assay: microbe, parasite or virus in culture. Format: cell-based, Escherichia coli. The method, then:
as §1, §2, §3

Assay [7] concerns E. coli clinical strain 2018XJ108. Kind of assay: microbe, parasite or virus in culture. The assay is classed as cell-based, Escherichia coli. As to the method: as §1, §2, §3
The test system of assay [8] is 10 strains tested (E. coli, S. aureus, MRSA, clinical E. coli strains). Kind of assay: microbe, parasite or virus in culture. The assay is classed as cell-based. The method, then: as §1, §2, §3
Another assay deals with MRSA (ATCC 43300). Kind of assay: microbe, parasite or virus in culture. The assay is classed as cell-based, methicillin-resistant S. aureus. As to the method:
as §1, §2, §3

The subject of the next assay is S. aureus (ATCC 292130). Kind of assay: microbe, parasite or virus in culture. The assay is classed as cell-based, Staphylococcus aureus.
The test system of a further assay is E. coli. Kind of assay: Propensity of bacterial resistance development (serial passage at 0.5 MIC). The assay is classed as cell-based, Escherichia coli. The method, then: It is crucial to evaluate the potential emergence of resistance from these compounds. […] The process was repeated for 16 passages. […] However, E. coli became resistant to FFC after only a few days. Therefore, these conjugates can be to combat drug-resistant bacteria.
Compound E6 was used to evaluate the tendency of developing bacterial resistance towards the florfenicol-polyarginine conjugates. The control antibiotic florfenicol was chosen for E. coli. MIC of E6 and florfenicol for 24 h were determined against E. coli., and then 0.5 MIC of E6 and florfenicol was challenged repeatedly against E. coli. After the initial MIC experiment, serial passage was investigated by transferring the growing bacterial suspension at sub-MIC of the compounds (MIC/2) and MIC in every passage was determined again. The process was repeated for 16 passages. The MICs for E6 and florfenicol corresponding to days were draw into figure to determine the propensity of bacterial resistance development.

Where [9] appears, read: Escherichia coli, clinical E. coli 2018XJ30, MHB, read-out: MIC.
The mark [10] stands for this setting: Escherichia coli, florfenicol resistant E. coli 2017XJ30, MHB, read-out: MIC.
Where [11] appears, read: Escherichia coli, clinical E. coli 2018XJ105, MHB, read-out: MIC.
Setting [12] is: Escherichia coli, clinical E. coli 2019XJ06, MHB, read-out: MIC.
Setting [13] is: Escherichia coli, clinical E. coli 2019XJ25, MHB, read-out: MIC.
Setting [14] is: Escherichia coli, florfenicol resistant E. coli 2019XJ20, MHB, read-out: MIC.
Setting [15] is: Escherichia coli, ATCC25922, E.coli (ATCC 25922), MHB, read-out: MIC.
The mark [16] stands for this setting: Escherichia coli, clinical E. coli 2018XJ108, MHB, read-out: MIC.
[17] abbreviates: Escherichia coli, against the 10 strains tested, read-out: MIC.
The mark [18] stands for this setting: Staphylococcus aureus, MRSA (ATCC 43300), MHB, read-out: MIC.
The mark [19] stands for this setting: Staphylococcus aureus, ATCC292130, S. aureus (ATCC 292130), MHB, read-out: MIC.
Setting [20] is: florfenicol resistant clinical strain 2017XJ30.
Where [21] appears, read: florfenicol resistant clinical strain 2019XJ20.

Converted amounts (≈) assume the structure as drawn. Like-named read-outs stand apart in the source and are kept apart here.

In the case of `CS(=O)(=O)c1ccc([C@@H](OC(=O)CCCC(=O)O)[C@@H](CF)NC(=O)C(Cl)Cl)cc1` [Compound C2, florfenicol glutarate], the MIC in assay [1] (setting [9]), in assay [2] (setting [10]), in [3] (setting [11]), in assay [4] (setting [12]), in [5] (setting [13]) and in assay [6] (setting [14]) was greater than 100 µM throughout. In addition, the MIC (in the assay on E.coli (ATCC 25922) (setting [15]); in [7] (setting [16]); in assay [8] (setting [17]); in the assay with MRSA (ATCC 43300) (setting [18]); in the assay with S. aureus (ATCC 292130) (setting [19])) was greater than 100 µM each time.
With `CS(=O)(=O)c1ccc([C@@H](OC(=O)CCCCC(=O)O)[C@@H](CF)NC(=O)C(Cl)Cl)cc1` [Compound C3], the MIC in [1] (setting [9]), in [2] (setting [10]), in assay [3] (setting [11]), in [4] (setting [12]), in assay [5] (setting [13]) and in assay [6] (setting [14]) was greater than 100 µM throughout. The MIC (in the assay on E.coli (ATCC 25922) (setting [15]); in assay [7] (setting [16]); in assay [8] (setting [17]); with MRSA (ATCC 43300) (setting [18]); in the assay on S. aureus (ATCC 292130) (setting [19])) was greater than 100 µM in each case.
`N=C(N)NCCC[C@H](NC(=O)[C@H](CCCNC(=N)N)NC(=O)[C@H](CCCNC(=N)N)NC(=O)[C@H](CCCNC(=N)N)NC(=O)[C@H](CCCNC(=N)N)NC(=O)[C@@H](N)CCCNC(=N)N)C(N)=O` [Compound D5]: the MIC in [1] (clinical strain 2018XJ30), in [2] (setting [20]), in assay [3] (clinical strain 2018XJ105), in assay [4] (clinical strain 2019XJ06), in assay [5] (clinical strain 2019XJ25) and in assay [6] (setting [21]) was 100 µM (≈ 95.4 µg/mL) in each case. Moreover, the MIC in the assay on E.coli (ATCC 25922) (ATCC 25922) was 100 µM (≈ 95.4 µg/mL); in assay [7] (clinical strain 2018XJ108) it was 100 µM (≈ 95.4 µg/mL); in [8] it was 25 to 100 µM; with MRSA (ATCC 43300) (ATCC 43300) it was 50 µM (≈ 47.7 µg/mL); against S. aureus (ATCC 292130) (ATCC 292130), 50 µM (≈ 47.7 µg/mL).
Consider `N=C(N)NCCC[C@H](NC(=O)[C@H](CCCNC(=N)N)NC(=O)[C@H](CCCNC(=N)N)NC(=O)[C@H](CCCNC(=N)N)NC(=O)[C@H](CCCNC(=N)N)NC(=O)[C@H](CCCNC(=N)N)NC(=O)[C@H](CCCNC(=N)N)NC(=O)[C@@H](N)CCCNC(=N)N)C(N)=O` [Compound D6], for which the MIC in [1] (clinical strain 2018XJ30), in assay [2] (setting [20]), in assay [3] (clinical strain 2018XJ105), in [4] (clinical strain 2019XJ06), in [5] (clinical strain 2019XJ25) and in [6] (setting [21]) was 50 µM (≈ 63.3 µg/mL) in each case. For the same compound, the MIC against E.coli (ATCC 25922) (ATCC 25922) is 50 µM (≈ 63.3 µg/mL); in assay [7] (clinical strain 2018XJ108), 50 µM (≈ 63.3 µg/mL); in [8] it was 25 to 100 µM; in the assay with MRSA (ATCC 43300) (ATCC 43300), 25 µM (≈ 31.7 µg/mL); against S. aureus (ATCC 292130) (ATCC 292130) it was 25 µM (≈ 31.7 µg/mL).
For `CS(=O)(=O)c1ccc([C@@H](O)[C@@H](CF)NC(=O)C(Cl)Cl)cc1` [Florfenicol], the MIC in [1] (setting [9]) was 6.25 µM (≈ 2.24 µg/mL); in assay [2] (setting [10]), greater than 100 µM; in [3] (setting [11]) it was 6.25 µM (≈ 2.24 µg/mL); in assay [4] (setting [12]), 6.25 µM (≈ 2.24 µg/mL); in assay [5] (setting [13]), 6.25 µM (≈ 2.24 µg/mL); in [6] (setting [14]), greater than 100 µM. For the same compound, the MIC (in the assay with E.coli (ATCC 25922) (setting [15]); in [7] (setting [16]); in the assay on MRSA (ATCC 43300) (setting [18]); in the assay on S. aureus (ATCC 292130) (setting [19])) was 6.25 µM (≈ 2.24 µg/mL) each time. Further, the “change of MIC after 16 passages” value in the assay with E. coli was determined as 2 fold.
